Data on 18 molecules can be found in ChEMBL document CHEMBL4765430, “Endeavors towards transformation of M. tuberculosis thymidylate kinase (MtbTMPK) inhibitors into potential antimycobacterial agents” (Eur J Med Chem, 2020).

In brackets after ≈: the same amount, converted by molar mass.

Series [1] deals with Mycobacterium tuberculosis. The series is described as follows: Antitubercular activity against Mycobacterium tuberculosis H37Rv ATCC 27294 incubated for 7 to 14 days under 7H9/glucose medium. The class given is functional. Particulars: time 7-14 day.
The subject of series [2] is Mycobacterium tuberculosis. The series is described as follows: Antitubercular activity against Mycobacterium tuberculosis H37Rv ATCC 27294 incubated for 7 to 14 days under GAST (Fe(+)) medium. The class given is functional. Particulars: time 7-14 day.
Series [3] relates to Mycobacterium tuberculosis. The series is described as follows: Antitubercular activity against Mycobacterium tuberculosis H37Rv ATCC 27294 incubated for 7 to 14 days under GAST (Fe(-)) medium. Particulars: time 7-14 day. The series is classed as functional.
The nature of series [4]: Inhibition of wild-type Mycobacterium tuberculosis thymidylate kinase expressed in Escherichia coli BLi5 competent cells using dTMP as substrate by lactate dehydrogenase, pyruvate kinase and nucleoside diphosphate kinase coupled spectrophotometric method.
Series [5] can be described thus: Stability of compound in pH 6.6 ammonium bicarbonate-formic acid buffer assessed as parent compound remaining measured after 24 hrs by LC-MS analysis. The class given is physicochemical. Particulars: read-out: Stabilty.
Series [6] in a line: Cytotoxicity against human MRC5 cells measured after 24 hrs by neutral red uptake assay. The class given is cell-based.
The subject of series [7] is Mycobacterium tuberculosis. The series is described as follows: Antitubercular activity against Mycobacterium tuberculosis H37Ra incubated for 7 to 14 days under 7H9/glucose medium. The series is classed as functional. Particulars: time 7-14 day.
Series [8] in a line: Stability of compound in pH 6.6 ammonium bicarbonate-formic acid buffer assessed as degradation measured up to 6 hrs by LC-MS analysis. The class given is physicochemical. The following applies: read-out: Drug degradation.
Series [9] can be described thus: Stability of compound in pH 6.6 ammonium bicarbonate-formic acid buffer assessed as hydrolysis measured after 24 hrs by LC-MS analysis. The series is classed as physicochemical. The following applies: pH 6.6, 24 h.

Consider `NNC(=O)c1ccncc1` [ISONIAZID], for which the MIC99 in series [1], in series [2] and in series [3] was 0.15 µM (≈ 0.0206 µg/mL) each time.
On to `Cc1cn(C2CCN(Cc3cc(NCCOC(=O)c4ccc(O)c(O)c4)c4ccccc4n3)CC2)c(=O)[nH]c1=O`, for which, in series [4] (read-out: IC50), the IC50 (commonly the point on the concentration scale where inhibition reaches its midpoint) was determined as 0.24 µM. Also, the remaining at 24 h in series [5] is over 70%. Besides, the MIC99 – broadly, an inhibitory concentration at the 99% level, which refers to growth in some studies and to a panel of isolates in others – is over 100 µM in series [1], over 100 µM in series [2] and 100 µM (≈ 54.6 µg/mL) in series [3]. In series [6], the CC50 (usually the concentration at which the toxic effect on the cells reaches its halfway point) at 24 h was over 64 µM.
`Cc1cn(C2CCN(Cc3cc(Oc4ccc(O)cc4)c4ccccc4n3)CC2)c(=O)[nH]c1=O`: the IC50 in [4] (read-out: IC50) is 0.83 µM. The MIC99 was at least 100 µM in series [1], over 100 µM in [2] and at least 100 µM in [3]. In series [6], this molecule registered a CC50 at 24 h of over 64 µM.
For the molecule `Cc1cn(C2CCN(Cc3cc(OCCOC(=O)c4ccc(O)c(O)c4)c4ccccc4n3)CC2)c(=O)[nH]c1=O`, the IC50 in series [4] (read-out: IC50) stood at 0.14 µM. Also, the MIC99 was at least 100 µM in [1], over 100 µM in series [2] and over 100 µM in series [3]. The molecule also had a CC50 at 24 h in [6] of 6.39 µM.
Regarding `Cc1cn(C2CCN(Cc3cc(NCCO)c4ccccc4n3)CC2)c(=O)[nH]c1=O`, in [4] (read-out: IC50), the IC50 was 0.53 µM. Also, the MIC99 in [1], in series [2] and in [3] was over 100 µM throughout. In addition, the CC50 at 24 h in series [6] is over 64 µM.
As to `Cc1cn(C2CCN(Cc3ccc(Oc4ccccc4)cc3)CC2)c(=O)[nH]c1=O`, the IC50 in series [4] (read-out: IC50) stood at 29 µM. In series [7], this molecule gave an MIC99 of over 64 µM.
Regarding `Cc1cn(C2CCN(Cc3cc(Oc4ccc(/C=N/NC(=S)S)c(O)c4)c4ccccc4n3)CC2)c(=O)[nH]c1=O`, the IC50 in [4] (read-out: IC50) was found to be 0.31 µM. Also, the degraded at 6 h in [8] was under 10%. For the same molecule, the remaining at 24 h in series [5] was over 70%. The results for the MIC99 in series [1], in [2] and in [3] were over 100 µM, 100 µM (≈ 57.7 µg/mL) and 25 µM (≈ 14.4 µg/mL), respectively. In addition, in series [6], the CC50 at 24 h amounted to 1.45 µM.
Take `Cc1cn(C2CCN(Cc3cc(Oc4ccc(C(=O)NO)cc4)c4ccccc4n3)CC2)c(=O)[nH]c1=O`: in series [4] (read-out: IC50), the IC50 was 1 µM. Moreover, the MIC99 is over 50 µM in series [1] and 50 µM (≈ 25.1 µg/mL) in series [2]. In addition, in series [6], the midpoint of cytotoxicity, the CC50 at 24 h, lay at 32.2 µM.
Consider `Cc1cn(C2CCN(Cc3cccc(-c4ccccn4)n3)CC2)c(=O)[nH]c1=O`, for which the IC50 in series [4] (read-out: IC50) was found to be 34 µM. Besides, the MIC99 in series [1] is 12.5 µM (≈ 4.72 µg/mL); in [2], over 100 µM; in series [3], over 100 µM. Also, in [6], the CC50 at 24 h was over 64 µM.
For the molecule `CCc1nc2ccc(Cl)cn2c1C(=O)N1CCC(n2cc(C)c(=O)[nH]c2=O)CC1`, in series [4] (read-out: IC50), the IC50 is 879 µM. In addition, the MIC99 in series [1], in [2] and in [3] was over 100 µM each time. The same molecule came in with a CC50 at 24 h in series [6] of over 64 µM.
Consider `Cc1cn(C2CCN(Cc3ccc(CNC(=O)c4cc([N+](=O)[O-])cc([N+](=O)[O-])c4)cc3)CC2)c(=O)[nH]c1=O`, for which, in series [4] (read-out: IC50), the IC50 is 48 µM. The figures for the MIC99 in series [1], in series [2] and in series [3] were 9.4 µM (≈ 4.91 µg/mL), 9.4 µM (≈ 4.91 µg/mL) and 6.25 µM (≈ 3.27 µg/mL), respectively. The CC50 at 24 h in [6] was over 64 µM.
With `Cc1cn(C2CCN(Cc3cc(OCCO)c4ccccc4n3)CC2)c(=O)[nH]c1=O`, the concentration for half-maximal inhibition (IC50) in [4] (read-out: IC50) came out at 2.4 µM. The MIC99 in [1], in series [2] and in series [3] was over 100 µM each time. The molecule also gave a CC50 at 24 h in series [6] of over 64 µM.
On to `Cc1cn(C2CCN(c3ccc(CNC(=O)c4ccc([N+](=O)[O-])cc4[N+](=O)[O-])cc3)CC2)c(=O)[nH]c1=O`, for which the IC50 result in series [4] is listed as “Nd(Unstable)”. Besides, the MIC99 came to 9.4 µM (≈ 4.78 µg/mL) in series [1], 0.78 µM (≈ 0.397 µg/mL) in [2] and 1.2 µM (≈ 0.61 µg/mL) in [3]. Also, the CC50 at 24 h in [6] was over 64 µM.
Take `Cc1cn(C2CCN(Cc3cc(Oc4ccc(OC(=O)c5ccc(O)c(O)c5)cc4)c4ccccc4n3)CC2)c(=O)[nH]c1=O`: the IC50 in [4] (read-out: IC50) is 0.18 µM. In series [8], the degraded at 6 h was under 10%. Further, the remaining at 24 h in series [5] is over 70%. Besides, the Stabilty entry in [9] is reported as “Stable”. The results for the MIC99 in series [1] and in series [2] were over 50 µM and 37 µM (≈ 22 µg/mL), respectively.
With `Cc1cn(C2CCN(Cc3cc(=O)c4ccccc4[nH]3)CC2)c(=O)[nH]c1=O`, in series [4] (read-out: IC50), the IC50 turned out to be 7.8 µM. In addition, the MIC99 in [1], in [2] and in series [3] was over 100 µM throughout. In series [6], this molecule had a CC50 at 24 h of over 64 µM.
For the molecule `Cc1cn(C2CCN(Cc3cc(Oc4ccc(C(=O)O)c(O)c4)c4ccccc4n3)CC2)c(=O)[nH]c1=O`, in [4] (read-out: IC50), the IC50 came to 1.3 µM. Also, the MIC99 in [1] was over 100 µM; in series [2] it was 100 µM (≈ 50.3 µg/mL); in [3], at least 100 µM. The molecule also had a CC50 at 24 h in [6] of over 64 µM.
As for `CCc1nc2ccc(Cl)cn2c1C(=O)NCc1ccc(N2CCC(n3cc(C)c(=O)[nH]c3=O)CC2)cc1`, the IC50 in series [4] (read-out: IC50) was 47 µM. The values for the MIC99 in [1] and in series [2] were 4.7 µM (≈ 2.45 µg/mL) and 2.3 µM (≈ 1.2 µg/mL), respectively. The same molecule had a CC50 at 24 h in series [6] of over 64 µM.
For `Cc1cn(C2CCN(Cc3ccc4cccc(O)c4n3)CC2)c(=O)[nH]c1=O`, the IC50 in [4] (read-out: IC50) was determined as 23 µM. The MIC99 in series [1] was 75 µM (≈ 27.5 µg/mL); in series [2] it was over 100 µM; in series [3], over 100 µM. In series [6], this molecule gave a CC50 at 24 h of 54 µM.
